Measurements from patent US20200354426A1 (MEDIMMUNE LIMITED, priority 2016, published 2020).
Numbered stars: 1 amine (or outer) side, 2 acyl side, 3 side chain; on linkers, the order of the positions; unused ones are H or OH. Side chains are listed from the residue outwards. Peptide text beside a SMILES is read from it. * marks the point of attachment. γGlu = O=C(O)[C@H](CCC(=O)[*:2])N[*:1]; Palmitoyl = CCCCCCCCCCCCCCCC(=O)*

Tests used:
[1] = molecular target: Human GLP1R (Homo sapiens, UniProt P43220)
Human GLP1R, sequence (P43220 24-463): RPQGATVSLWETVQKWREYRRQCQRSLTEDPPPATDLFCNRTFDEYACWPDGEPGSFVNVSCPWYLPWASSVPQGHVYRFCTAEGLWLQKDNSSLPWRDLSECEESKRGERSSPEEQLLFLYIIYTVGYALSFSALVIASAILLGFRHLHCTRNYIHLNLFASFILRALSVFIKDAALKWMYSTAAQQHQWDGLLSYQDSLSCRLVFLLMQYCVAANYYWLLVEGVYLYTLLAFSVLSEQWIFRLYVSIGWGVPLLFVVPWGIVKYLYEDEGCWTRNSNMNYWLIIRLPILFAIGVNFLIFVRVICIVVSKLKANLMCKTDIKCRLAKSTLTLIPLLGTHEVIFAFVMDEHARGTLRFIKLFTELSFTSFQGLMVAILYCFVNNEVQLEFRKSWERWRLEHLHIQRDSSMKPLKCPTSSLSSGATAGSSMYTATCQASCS

[2] = molecular target: T1, Mouse GLP1R (Mus musculus, UniProt O35659); test: cAMP assay in 3.2% mouse serum albumin (assay 2); format: cell-based
T1 construct: expressed in transfected cells
T1 sequence (O35659 22-463): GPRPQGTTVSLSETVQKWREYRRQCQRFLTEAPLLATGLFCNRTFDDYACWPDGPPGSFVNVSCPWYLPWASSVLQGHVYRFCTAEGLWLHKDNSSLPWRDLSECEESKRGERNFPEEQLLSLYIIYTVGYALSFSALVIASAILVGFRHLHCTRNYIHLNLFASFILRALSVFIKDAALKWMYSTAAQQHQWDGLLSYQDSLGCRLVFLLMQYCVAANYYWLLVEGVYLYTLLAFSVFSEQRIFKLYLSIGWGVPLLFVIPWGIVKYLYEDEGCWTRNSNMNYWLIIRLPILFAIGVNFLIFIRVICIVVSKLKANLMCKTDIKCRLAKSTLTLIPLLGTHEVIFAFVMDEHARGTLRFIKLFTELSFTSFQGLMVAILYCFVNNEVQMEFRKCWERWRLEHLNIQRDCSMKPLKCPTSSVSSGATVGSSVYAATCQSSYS
Experimental: (§1) Cryopreserved cell stocks were prepared in 1× cell freezing medium-DMSO serum free (Sigma Aldrich) at 2×10^7/vial and stored at −80° C. […] Peptides were serially diluted in DMSO and then diluted 100 fold into DMEM containing serum albumin at stated final concentration. […] Cells were added to the assay plates and incubated for 30 min at room temperature. Following incubation the assay was stopped and cAMP levels measured using the HTRF® dynamic d2 cAMP assay kit available from CisBio Bioassays, as per the manufacture's guidelines. Plates were read on Perkin Elmer ENVISION® fluorescence plate readers. Human and rat serum albumin were purchased from Sigma Aldrich and mouse serum albumin from Equitech Bio Ltd.
(§2) Data was transformed to % Delta F as described in manufacturer's guidelines and analysed by 4-parameter logistic fit to determine EC50 values. […] For instance. […] To compare the balance of activities at the GLP1R and GlucR between different peptides and across different conditions, these can be correlated using the calculation below, where the EC50's are related to those of the natural ligands.

[3] = molecular target: T2, Mouse GlucR (Mus musculus, UniProt Q61606); test: cAMP assay in 3.2% mouse serum albumin (assay 2); format: cell-based; conditions: relative potencies vs natural ligands
T2 construct: expressed in transfected cells
T2 sequence (Q61606 27-485): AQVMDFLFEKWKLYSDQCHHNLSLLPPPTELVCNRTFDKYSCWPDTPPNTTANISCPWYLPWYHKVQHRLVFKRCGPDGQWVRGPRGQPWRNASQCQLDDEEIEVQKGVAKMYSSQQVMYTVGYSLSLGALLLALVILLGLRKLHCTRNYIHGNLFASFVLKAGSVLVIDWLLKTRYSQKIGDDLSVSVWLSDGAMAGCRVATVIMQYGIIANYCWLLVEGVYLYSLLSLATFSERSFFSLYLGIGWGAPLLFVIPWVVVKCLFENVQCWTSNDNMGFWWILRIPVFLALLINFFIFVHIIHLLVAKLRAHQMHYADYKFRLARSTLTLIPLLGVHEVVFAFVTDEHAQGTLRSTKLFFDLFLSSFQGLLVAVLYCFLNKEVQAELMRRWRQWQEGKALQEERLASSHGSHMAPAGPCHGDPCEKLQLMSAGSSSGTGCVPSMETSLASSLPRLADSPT

[4] = molecular target: T3, Rat GlucR (Rattus norvegicus, UniProt P30082); test: cAMP assay in 3.2% rat serum albumin (assay 2); format: cell-based; conditions: for Rat GlucR/GLP1R Ratio: […] rat serum albumin, relative potencies vs natural ligands
T3 construct: expressed in transfected cells
T3 sequence (P30082 27-485): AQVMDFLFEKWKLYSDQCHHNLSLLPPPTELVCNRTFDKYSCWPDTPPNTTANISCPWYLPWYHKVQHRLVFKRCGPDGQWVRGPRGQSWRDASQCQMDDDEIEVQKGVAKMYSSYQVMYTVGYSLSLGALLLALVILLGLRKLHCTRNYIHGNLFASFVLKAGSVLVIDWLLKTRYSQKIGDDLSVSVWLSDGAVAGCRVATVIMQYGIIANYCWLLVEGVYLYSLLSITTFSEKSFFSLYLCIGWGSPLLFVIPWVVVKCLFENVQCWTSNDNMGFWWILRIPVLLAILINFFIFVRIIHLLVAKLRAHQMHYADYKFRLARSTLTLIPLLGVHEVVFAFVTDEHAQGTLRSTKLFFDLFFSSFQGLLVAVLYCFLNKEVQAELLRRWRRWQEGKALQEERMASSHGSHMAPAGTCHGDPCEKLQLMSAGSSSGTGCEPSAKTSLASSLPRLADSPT

[5] = Stability testing of peptides in plasma; format: in vitro ADME, human
Experimental: The stability in plasma of the peptideS […], […], […] and […] was determined as follows. […] The spiked plasma samples were gently mixed and allowed to equilibrate for about 5 minutes before start of experiment. The plasma samples were incubated for 48 hours in a GalaxyR CO2 incubator at 37° C. […] The samples were stored at -70° C. until analysis. Plasma samples were assayed as follows. […] After mixing and centrifugation, 100 μl the supernatant was transferred to a new plate and 1 μl was injected onto an analytical column. The analysis was performed using a μLC-system ([…]) coupled to a medium high resolution mass spectrometer (Perkin Elmer PenTOF) with positive electrospray ionisation. […] Flow: 0.1 ml/min using a slow reversed phase gradient. […] Cleavage products arise from the action of the protease DPP IV in plasma. Both the degradation of the peptides and formation of peptide products were reported in percentage of the initial peptide concentration. Peaks were integrated and % remaining peptide was calculated: […] Levels of deamidation and DPP IV cleavage were low for […] and […].

[6] = molecular target: T4, Rat GLP1R (Rattus norvegicus, UniProt P32301); test: cAMP assay in 3.2% rat serum albumin (assay 2); format: cell-based
T4 construct: expressed in transfected cells
T4 sequence (P32301 22-463): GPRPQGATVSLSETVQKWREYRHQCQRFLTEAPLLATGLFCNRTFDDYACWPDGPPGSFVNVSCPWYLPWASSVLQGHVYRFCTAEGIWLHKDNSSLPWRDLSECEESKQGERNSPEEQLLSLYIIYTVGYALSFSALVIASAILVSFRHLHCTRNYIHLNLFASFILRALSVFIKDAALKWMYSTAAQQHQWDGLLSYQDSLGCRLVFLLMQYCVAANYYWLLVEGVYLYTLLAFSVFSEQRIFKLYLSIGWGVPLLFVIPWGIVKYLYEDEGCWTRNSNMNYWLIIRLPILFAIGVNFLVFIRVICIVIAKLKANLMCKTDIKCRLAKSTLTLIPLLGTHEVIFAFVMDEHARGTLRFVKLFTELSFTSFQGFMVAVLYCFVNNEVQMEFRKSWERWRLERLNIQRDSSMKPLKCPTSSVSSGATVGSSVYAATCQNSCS
Experimental: as §1, §2

[7] = tested on: healthy volunteers; test: Phase 1 single-ascending-dose study of G933 (PK, PD, immunogenicity, safety); format: in vivo, human; conditions: for Overall daily food intake compared with placebo: across breakfast, lunch and dinner; for Median glucose peak after breakfast: approximately 1 hour post breakfast, 3.5 hours post dose; for Median glucose peak after dinner: approximately 1 hour post dinner, […] post dose; for Median glucose peak after lunch: approximately 1 hour post lunch, 7 hours post dose
Text: The subjects were screened for the following inclusion and exclusion criteria.
Inclusion Criteria: • Healthy volunteers, ages 18 through 45 years at the time of screening; • Body mass index ≥22 and ≤30 kg/m^2 and body weight ≥70 kg; and • Venous access suitable for multiple cannulations.
The period of exclusion to begin 30 days or 5 half-lives of investigational product after the final dose, or after the last visit, whichever is longest. Subjects consented and screened, but not randomized into this study or a previous study, are not excluded; or • Psychiatric illness such that subjects have been committed to an institution by way of official or judicial order
Eight subjects per cohort were planned.

Molecule: CCCCCCCCCCCCCCCC(=O)N[C@@H](CCC(=O)NCCCC[C@H](NC(=O)[C@H](CCCCN)NC(=O)[C@H](CO)NC(=O)[C@H](Cc1ccc(O)cc1)NC(=O)[C@H](CC(=O)O)NC(=O)[C@H](CO)NC(=O)[C@@H](NC(=O)[C@H](Cc1ccccc1)NC(=O)[C@@H](NC(=O)CNC(=O)[C@H](CCC(N)=O)NC(=O)[C@H](CO)NC(=O)[C@@H](N)Cc1c[nH]cn1)[C@@H](C)O)[C@@H](C)O)C(=O)N[C@@H](CC(C)C)C(=O)N[C@@H](CC(=O)O)C(=O)N[C@@H](CO)C(=O)N[C@@H](CCC(=O)O)C(=O)N[C@@H](CCCNC(=N)N)C(=O)N[C@@H](C)C(=O)N[C@@H](CCCNC(=N)N)C(=O)N[C@@H](CC(=O)O)C(=O)N[C@@H](Cc1ccccc1)C(=O)N[C@H](C(=O)N[C@@H](C)C(=O)N[C@@H](Cc1c[nH]c2ccccc12)C(=O)N[C@@H](CC(C)C)C(=O)N[C@H](C(=O)N[C@@H](C)C(=O)NCC(=O)NCC(N)=O)C(C)C)C(C)C)C(=O)O [Peptide G730] (H-HSQGTFTSDYSKK([γGlu-Palmitoyl])LDSERARDFVAWLVAGG-NH2; N-terminus assumed)
- free peptide at 4.4% HSA [1]: 0.85%
- EC50 [2]: 1.1 nM
- Mouse GlucR/GLP1R Ratio [3]: 0.04
- EC50 ([4]; 3.2% rat serum albumin): 45.1 nM
- Rat GlucR/GLP1R Ratio [4]: 0.06
- % +1 prod [5]: <1%
- % DPP cleaved product/+1 DPP cleaved product [5]: <1%
- remaining at 24 h, 2 μmol/L ([5]; human, plasma): 100%
- EC50 [6]: 0.081 nM

Molecule: L-Histidyl-L-seryl-L-glutaminylglycyl-L-threonyl-L-phenylalanyl-L-threonyl-L-seryl-L-alpha-aspartyl-(N6-[N-(1-oxohexadecyl)-L-gamma-gutamyl])L-lysy-L-sery-L-alpha-glutamyl-L-tyrosyl-L-leucyl-L-alpha-aspartyl-L-seryl-L-alpha-glutamyl-L-arginyl-L-alanyl-L-arginyl-L-alpha-L-aspartyl-L-phenylalanyl-L-valyl-L-alanyl-L-tryptophyl-L-leucyl-L-alpha-glutamyl-L-alanylglycylglycine [Peptide G933]
- Rat GlucR/GLP1R Ratio [4]: 0.27
- Overall daily food intake compared with placebo ([7]; Dose (µg) 5): 100%
- Median glucose peak after breakfast ([7]; Dose (µg) 5): 6.2 mmol/L
- Median glucose peak after dinner ([7]; Dose (µg) 5): 7.0 mmol/L
- Median glucose peak after lunch ([7]; Dose (µg) 5): 4.9 mmol/L
- Overall daily food intake compared with placebo ([7]; Dose (µg) 10): 100%
- Median glucose peak after breakfast ([7]; Dose (µg) 10): 5.8 mmol/L
- Median glucose peak after dinner ([7]; Dose (µg) 10): 6.0 mmol/L
- Median glucose peak after lunch ([7]; Dose (µg) 10): 5.1 mmol/L
- Overall daily food intake compared with placebo ([7]; Dose (µg) 30): 96%
- Median glucose peak after breakfast ([7]; Dose (µg) 30): 5.4 mmol/L
- Median glucose peak after dinner ([7]; Dose (µg) 30): 5.2 mmol/L
- Median glucose peak after lunch ([7]; Dose (µg) 30): 4.4 mmol/L
- Overall daily food intake compared with placebo ([7]; Dose (µg) 100): 82%
- Median glucose peak after breakfast ([7]; Dose (µg) 100): 5.5 mmol/L
- Median glucose peak after dinner ([7]; Dose (µg) 100): 5.2 mmol/L
- Median glucose peak after lunch ([7]; Dose (µg) 100): 4.7 mmol/L
- Overall daily food intake compared with placebo ([7]; Dose (µg) 150): 60%
- Median glucose peak after breakfast ([7]; Dose (µg) 150): 5.1 mmol/L
- Median glucose peak after dinner ([7]; Dose (µg) 150): 5.2 mmol/L
- Median glucose peak after lunch ([7]; Dose (µg) 150): 5.1 mmol/L
- Overall daily food intake compared with placebo ([7]; Dose (µg) 300): 23%
- Median glucose peak after breakfast ([7]; Dose (µg) 300): 4.7 mmol/L
- Median glucose peak after dinner ([7]; Dose (µg) 300): 4.9 mmol/L
- Median glucose peak after lunch ([7]; Dose (µg) 300): 5.1 mmol/L
- overall daily food intake ([7]; all single doses compared with placebo): reduction in overall daily food intake
- plasma glucose levels ([7]; all single doses, 2.5-14 hours post-dose): glucose lowering effect
